Laboratory results from patent US7601732B2, “Crystalline form of 5(S)-(2-hydroxyethoxy)-20(S)-camptothecin” (Dr. Reddy's Laboratories Limited, priority 2006, dated 2009).
pIC50: −log10 of the molar value. Like-named read-outs stand apart in the source and are kept apart here.

Assays:
[1] = tested on: Human bone marrow mononuclear cells; assay: Human bone marrow assay (CFU-GM colony inhibition); format: cell-based
Procedure: Methocult™ GF (Cat No: H4534, Poietics, Biowhittakar, USA) medium comprising Methycellulose in Iscove's MDM, Fetal bovine serum, Bovine serum albumin, 2-Mercaptoethanol, L-Glutamine, rhStem cell factor, rhGM-CSF and rhIL-3 was used for the assay. Human bone marrow mononuclear cells (Cat No. 2M-125C, Poietics, Biowhittakar, USA) were mixed with Methocult™ GF and the cell density was adjusted to 3×10^5 cells/ml. From this preparation, 500 μL aliquots were made and 2.5 μL of 20× drug solution or vehicle was added to each aliquot and mixed thoroughly. 100 μL of clonogenic medium was plated into each well and the plates were allowed to gel at 4° C. for 15 minutes. Plates were incubated at 37° C. in a fully humidified atmosphere of 5% CO2 in an incubator for 14 days. CFU-GM colonies were counted under an inverted microscope as aggregates of 50 cells or more. The percentage colony inhibition was calculated using the following formula: 100−[(number of colonies in drug treated wells/Number of colonies in control wells)×100].

[2] = tested on: Saos-2 cells over expressing functional BCRP#4; format: cell-based, human
Procedure: (§1) The anticancer effect of 5(S)-CPT & 5(R)-CPT were evaluated versus the diastereoisomeric mixture 5(RS)-CPT on Saos-2 cells over expressing functional BCRP#4 and non-functional BCRP mut#10. The human osteosarcoma cell line, Saos-2, was obtained from ATCC (American Type Culture Collection, Cat#HTB-85, Manassas, Va.) and were maintained in DMEM containing 10% fetal bovine serum, 1% penicillin/streptomycin, and 2 mM glutamine. Saos-2 cells were transfected with either BCRP#4 to over express functional BCRP or BCRP#10 to over express non-functional BCRP transporter. The cells were plated in 96-well plates at a density of 1000 cells per each well in a 0.1 ml of medium and allowed to attach overnight. The next morning the medium was gently aspirated and serial dilutions of the compounds to be tested were added. The cells were incubated at 37° C. in a 5% CO2 incubator. After 6 days of exposure to the test drugs, 10 μl of Alamar blue was added aseptically to each well and the plates were returned to the incubator for 6 hr. The amount of the fluorescent dye produced was measured on a Cytofluor 2300(Millipore, Bedford, Mass.) using an excitation wavelength of 530 nm and emission wavelength of 590 nm. The relative fluorescence units obtained were used to calculate the percentage growth at each concentration in relation to the untreated control values. […]

[3] = tested on: Saos-2 cells over expressing non-functional BCRP mut#10; format: cell-based, human
Procedure: as §1

Topoisomerase I = target: T1, Topoisomerase I (Homo sapiens, UniProt P11387); assay: Topoisomerase I assay (TopoGEN Topo I Drug Screening Kit); format: biochemical
T1 construct: purchased Topogen, Inc., Port Orange, Fla
T1 sequence (P11387 1-765): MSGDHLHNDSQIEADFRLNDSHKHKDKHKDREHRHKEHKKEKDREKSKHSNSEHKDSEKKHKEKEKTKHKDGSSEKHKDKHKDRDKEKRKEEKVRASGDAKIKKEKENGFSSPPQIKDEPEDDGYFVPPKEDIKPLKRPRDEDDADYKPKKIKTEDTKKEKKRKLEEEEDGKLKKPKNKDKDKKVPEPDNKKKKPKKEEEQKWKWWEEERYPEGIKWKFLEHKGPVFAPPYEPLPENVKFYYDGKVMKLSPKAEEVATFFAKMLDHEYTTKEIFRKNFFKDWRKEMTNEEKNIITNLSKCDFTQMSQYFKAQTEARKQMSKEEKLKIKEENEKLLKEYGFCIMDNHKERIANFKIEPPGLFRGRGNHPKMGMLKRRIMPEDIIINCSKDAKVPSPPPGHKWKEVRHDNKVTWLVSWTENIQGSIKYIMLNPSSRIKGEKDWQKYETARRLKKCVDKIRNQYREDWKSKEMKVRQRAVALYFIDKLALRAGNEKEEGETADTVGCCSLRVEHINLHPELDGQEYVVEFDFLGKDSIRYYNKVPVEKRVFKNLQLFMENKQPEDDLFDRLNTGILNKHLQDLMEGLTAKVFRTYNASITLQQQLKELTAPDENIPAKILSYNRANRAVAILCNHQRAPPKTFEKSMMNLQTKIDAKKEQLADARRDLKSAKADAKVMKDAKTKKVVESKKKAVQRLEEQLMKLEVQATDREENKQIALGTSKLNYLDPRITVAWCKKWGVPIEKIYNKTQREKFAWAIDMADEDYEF
Description: Topoisomerase I introduces transient nicks in DNA at specific sites. Detection of these transient DNA nicks requires trapping the enzyme on DNA in a nicked intermediate complex using protein denaturants. The resulting covalent DNA/topo I complexes contain nicked open circular DNA which can be detected by agarose gel electrophoresis (with ethidium bromide). Trapping nicked intermediates is relatively inefficient, however, inhibitors, such as the natural product camptothecin, stabilize the intermediate and lead to an increase in the nicked DNA product. This forms the basis for a mechanistic drug screen designed to allow detection of agents that affect topoisomerase I by stabilizing the cleaved intermediate complex.
The TopoGEN® Topo I Drug Screening Kit (Topogen, Inc., Port Orange, Fla.) is designed to allow the investigator to quickly identify novel inhibitors of topoisomerase I. The kit allows the detection of novel compounds that either stabilize the nicked intermediate or otherwise inhibit catalytic activity of topoisomerase I.
The above reaction mixture is incubated at 37° C. for 30 minutes. The reaction is terminated by adding 2 μl of 10% SDS and the mixture is vortexed rapidly (SDS should be added while at 37° C. as cooling the tubes might reseal the nicked DNA). 10× Dye, about 2.5 μl per tube, is added and equal volumes of a mixture of chloroform and isoamyl alcohol (24:1) is added and centrifuged at 13000 rpm for 10 minutes. Samples are loaded on a 1% agarose gel and electrophoresed for 1 hour at 80 volts. The gel was viewed on UV transilluminator and the densitometric estimation of the bands was calculated.
The density of the DNA bands of both super coiled and relaxed forms of DNA was measured using the densitometer. The band intensity of treated (with single concentration of the test drug) and without the drug (i.e., the Control) were recorded. The percentage of relaxed form DNA compared to the supercoiled DNA was calculated for all the lanes including treated and control.
% inhibition of Topoisomerase activity was calculated as: =(100−(100×(1/% inhibition in Control)×% inhibition in treated))

in vivo [4] = assay: in vivo; parameters: species or system Swiss Albino mice; conditions: Swiss Albino, mouse, po, 5 mg/kg
Procedure: 5(S)-CPT (2.5 mg/kg) and 5(RS)-CPT (5 mg/kg, including 2.5 mg/kg of 5(S)-CPT in the mixture) were been administered to Swiss Albino mice to evaluate oral pharmacokinetics.
(§2) Swiss Albino mice, 3-6 weeks of age and weighing between 28-34 g were used in the study. Twelve mice were used per study. The oral pharmacokinetics test was carried out in overnight fasted condition and intravenous pharmacokinetics was carried out in fed condition. The test drugs were administered as a solution by oral gavage or lateral tail vein injection. Sparse blood samples of about 250 microliters were collected from retro-orbital plexus at designated time points into microcentrifuge tubes containing 25 microliters of EDTA. Plasma was separated by centrifuging blood at 12,800 rpm for 2 min and refrigerated until analysis.
(§3) Samples were tested for the presence of the test drug as follows. An aliquot of 100 μl plasma (stored at 8° C.) was precipitated with 400 μl of cold methanol for the estimation of total (lactone+carboxylate). […] Concentrations of the test drug were calculated from the linearity plotted by spiking known concentrations of the test drug in blank rat plasma. The pharmacokinetics of the test drug was calculated using non-compartmental analysis.

[5] = tested on: NCI-H460 (human small cell lung carcinoma) xenografts; assay: NCI-H460 xenograft study in nude mice; format: in vivo; conditions: oral, (d×5)2 schedule
Procedure: Percentage tumor growth inhibition was calculated using the formula: Percentage Tumor growth inhibition=100−% T/C.
The other parameter observed was mortality.

[6] = format: physicochemical; conditions: accelerated stability 40° C.±2° C./75% RH±5% RH for 6 months
Procedure: The water content of crystalline 5(S)-CPT was measured by Mettler® DL 31 KF apparatus by using Karl Fischer reagent. A weighed quantity of crystalline 5(S)-CPT was transferred into a titration vessel of a Karl Fischer apparatus containing about 40 ml of previously neutralized methanol. The sample was dissolved with stirring, and was titrated with Karl Fisher Reagent to the end point under vigorous stirring. Water content was calculated as: […]
The product is stable in 6 months accelerated conditions.
In one embodiment, 5(S)-CPT is isolated in crystalline form, which exists substantially free from water (i.e., essentially anhydrous). The term “substantially free from water” means the presence of less than about 1.0% water w/w and even specifically less than about 0.5% water w/w as measured by Karl Fisher analysis or TGA. […] The product is stable for 6 months under accelerated stability testing conditions of 40° C.±2° C./75% RH±5% RH and stable for 24 months under long term stability testing conditions at 30° C.±2° C./65%±5% RH.

in vivo [7] = assay: in vivo; parameters: species or system male Wistar rats; conditions: male, Wistar, rat, po, 5 mg/kg
Procedure: 5(S)-CPT (2.5 mg/kg) and 5(RS)-CPT (5 mg/kg, including 2.5 mg/kg of 5(S)-CPT in the mixture) were been administered to male Wistar Rats to evaluate oral pharmacokinetics.
as §2, with “Male Wistar rats, 6-8” for “Swiss Albino mice, 3-6”, “205 and 218” for “28-34”, “divided into groups of four rats.” for “used in the study. Twelve mice were used per study.”
as §3

| SMILES | GI90 for human bone marrow cells in vitro ([1]; human, 14 days) [µM] | Safety Margin (GI90/GI50) ([1]; ratio of GI90 for human cell toxicity to GI50 for anticancer activity) | fold more cytotoxic than 5(R)-CPT [2] [fold] | fold more cytotoxic than 5(R)-CPT [3] [fold] | pIC50 (Topoisomerase I) | fold more active than 5(R)-CPT in inhibiting topoisomerase I (Topoisomerase I; versus 5(R)-CPT) | times more active than 5(RS)-CPT in inhibiting topoisomerase I (Topoisomerase I; versus 5(RS)-CPT) | AUC (in vivo [4]) [µM·h] | Mortality ([5]; 2 mg/kg) | Mortality ([5]; 4 mg/kg) | change in water content (Karl Fisher analysis) [6] | hygroscopicity [6] | change in water content (Karl Fisher analysis) ([6]; listed as crystalline 5(S)-CPT) | AUC (in vivo [7]) [µM·h] | Safety Margin (GI90/GI50) ([1]; human, 14 days) | % Tumor Growth Inhibition ([5]; 2 mg/kg) [%] |
| --- | --- | --- | --- | --- | --- | --- | --- | --- | --- | --- | --- | --- | --- | --- | --- | --- |
| CC[C@@]1(O)C(=O)OCc2c1cc1n(c2=O)[C@@H](OCCO)c2cc3ccccc3nc2-1 [5(S)-CPT, 5(S)-(2′-hydroxyethoxy)-20(S)-camptothecin] | 0.69 | 0.14 | > 2.5 | ~6 | 5.97 | about 21 fold | about 12 times | 5.18 | 0/5 | 0/5 | no appreciable change | non-hygroscopic | No change | 5.76 |  |  |
| CC[C@@]1(O)C(=O)OCc2c1cc1n(c2=O)[C@H](OCCO)c2cc3ccccc3nc2-1 [5(R)-CPT, 5(R)-(2′-hydroxyethoxy)-20(S)-camptothecin, reference compound] | 0.89 |  |  |  | 4.66 |  |  |  |  |  |  |  |  |  | 0.06 |  |
| CC[C@@]1(O)C(=O)OCc2c1cc1n(c2=O)C(OCCO)c2cc3ccccc3nc2-1 (mixture of isomers) [5(RS)-CPT, 5(RS)-(2′-hydroxyethoxy)-20(S)-camptothecin, reference compound] |  |  |  |  | 4.90 |  |  | 5.2 | 0/5 | 0/5 |  |  |  | 5.08 |  | 60 |
